Test results published in US9988397B2, “ERK inhibitors” (Merck Sharp & Dohme Corp., priority 2014, dated 2018).

molecular target: phosphorylated active hERK2 enzyme (Homo sapiens, UniProt P28482); experiment: Active human ERK2 (hERK2) Activity Assay (IMAP-FP); format: biochemical; settings: 10 point titration, 3 μM starting concentration, 0.5 nM hERK2, 30 μM ATP, 60 minutes reaction
Sequence (P28482 whole entry): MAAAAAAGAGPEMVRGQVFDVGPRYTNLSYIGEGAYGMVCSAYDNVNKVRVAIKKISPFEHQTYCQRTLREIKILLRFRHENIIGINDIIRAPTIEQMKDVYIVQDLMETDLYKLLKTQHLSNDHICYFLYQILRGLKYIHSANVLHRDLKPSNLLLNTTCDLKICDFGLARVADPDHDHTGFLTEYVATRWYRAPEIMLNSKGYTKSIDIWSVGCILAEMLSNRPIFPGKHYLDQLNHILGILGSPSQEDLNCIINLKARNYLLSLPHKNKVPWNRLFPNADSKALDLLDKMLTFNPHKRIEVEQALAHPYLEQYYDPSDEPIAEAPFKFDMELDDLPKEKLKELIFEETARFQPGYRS
Description: Activated ERK2 activity was determined in an IMAP-FP assay (Molecular Devices). Using this assay format, the potency (IC50) of each compound was determined from a 10 point (1:3 serial dilution, 3 μM starting compound concentration) titration curve using the following outlined procedure. […] Following a 15 minute compound & enzyme incubation, each reaction was initiated by the addition of 10 μL kinase buffer containing 2.45 μM ERK2 IMAP substrate peptides and 75 μM ATP. The final reaction in each well of 25 μL consists of 0.5 nM hERK2, 900 nM unlabeled peptide, 80 nM labeled-peptide, and 30 μM ATP. Phosphorylation reactions were allowed to proceed for 60 minutes and were immediately quenched by the addition of 60 μL IMAP detection beads (1:1000 dilutions) in IMAP binding buffer (Molecular Devices) with 24 mM NaCl. Plates were read on EnVision reader after 60 minutes binding equilibration using Fluorescence Polarization protocol (Perkin Elmer).

Row | Compound | IC50 [nM]
1 | Cc1cc(-n2ncc3cc4nc(c32)Cn2cc(nn2)CC(c2ccccc2)NC(=O)N4)ccn1 (single isomer, unassigned) [Example 39, 1-(2-Methylpyridin-4-yl)-9-phenyl-1,6,9,10-tetrahydro-5,16-(azeno)-14,11-(metheno)pyrazolo[4,3-l][1,2,3,7,9]pentaazacyclopentadecin-7(8H,15H)-one] | 233
2 | CN1CCCC(c2ccccc2)NC(=O)Nc2cc3cnn(C)c3c(n2)C1 (stereo not drawn) [Example 33, 1,13-Dimethyl-9-phenyl-1,6,9,10,11,12,13,14-octahydro-5,15-(azeno)pyrazolo[3,4-k][1,3,8]triazacyclotetradecin-7(8H)-one] | 276
3 | CCn1ncc2cc3nc(c21)/C=C\COC(C)(C)[C@@H](c1ccccc1)NC(=O)N3 [Example 42, (9R,13Z)-1-Ethyl-10,10-dimethyl-9-phenyl-1,6,9,10-tetrahydro-12H-5,15-(azeno)pyrazolo [4,3-i][1,4,6]oxadiazacyclotetradecin-7(8H)-one] | 230
4 | Cn1ncc2cc3nc(c21)CCCOC[C@H](c1ccccc1)NC(=O)N3 [Example 2, (9S)-1-Methyl-9-phenyl-1,6,9,10,13,14-hexahydro-12H-5,15-(azeno)pyrazolo[4,3-i][1,4,6]oxadiazacyclotetradecin-7(8H)-one] | 10.2
5 | Cn1ncc2cc3nc(c21)OCCCC[C@H](c1ccccc1)NC(=O)N3 [Example 17, (9R)-1-Methyl-9-phenyl-1,6,8,9,10,11,12,13-octahydro-7H-5,15-(azeno)pyrazolo [3,4-c][1,7,9]oxadiazacyclotetradecin-7-one] | 58.9
6 | Cn1ncc2cc3nc(c21)Cn1cc(nn1)CC(c1ccccc1)NC(=O)N3 (stereo not drawn) [Example 34, 1-methyl-9-phenyl-1,6,9,10-tetrahydro-5,16-(azeno)-14,11-(metheno)pyrazolo[4,3-l][1,2,3,7,9]pentaazacyclopentadecin-7(8H,15H)-one] | 89.9
7 | CCn1ncc2cc3nc(c21)C[C@@H](O)COC[C@H](c1cccc(Cl)c1)NC(=O)N3 [Example 55, (9S,13R)-9-(3-chlorophenyl)-1-ethyl-13-hydroxy-1,6,9,10,13,14-hexahydro-12H-5,15-(azeno)pyrazolo[4,3-i][1,4,6]oxadiazacyclotetradecin-7(8H)-one] | 3.83
8 | CCn1ncc2cc3nc(c21)[C@H]1C[C@H]1COC[C@H](c1ccccc1)NC(=O)N3 [Example 8, (9S,12aR,13aS)-1-Ethyl-9-phenyl-1,6,9,10,12,12a,13,13a-octahydro-5,14-(azeno)cyclopropa[1]pyrazolo[4,3-i][1,4,6]oxadiazacyclotetradecin-7(8H)-one] | 49.7
9 | CCn1ncc2cc3nc(c21)C[C@@H](O)COC[C@H](c1ccc(Cl)c(F)c1)NC(=O)N3 [Example 53, (9S,13R)-1-Ethyl-9-(4-chloro-3-fluorophenyl)-13-hydroxy-1,6,9,10,13,14-hexahydro-12H-5,15-(azeno)pyrazolo[4,3-i][1,4,6]oxadiazacyclotetradecin-7(8H)-one] | 3.91
10 | CN1CCCc2nc(cc3cnn(C)c23)NC(=O)N[C@@H](c2ccccc2)C1 [Example 15, (9S)-1,11-Dimethyl-9-phenyl-1,6,9,10,11,12,13,14-octahydro-5,15-(azeno)pyrazolo[3,4-k][1,3,6]triazacyclotetradecin-7(8H)-one] | 56.8
11 | CCn1ncc2cc3nc(c21)C[C@@H](O)COC[C@H](c1ccc(OC)c(F)c1)NC(=O)N3 [Example 49, (9S,13R)-1-Ethyl-9-(3-fluoro-4-methoxyphenyl)-13-hydroxy-1,6,9,10,13,14-hexahydro-12H-5,15-(azeno)pyrazolo[4,3-i][1,4,6]oxadiazacyclotetradecin-7(8H)-one] | 3.4
12 | CCn1ncc2cc3nc(c21)C[C@H](O)COC[C@H](c1ccc(OC)c(F)c1)NC(=O)N3 [Example 50, (9S,13S)-1-Ethyl-9-(3-fluoro-4-methoxyphenyl)-13-hydroxy-1,6,9,10,13,14-hexahydro-12H-5,15-(azeno)pyrazolo[4,3-i][1,4,6]oxadiazacyclotetradecin-7(8H)-one] | 6.28
13 | COCCn1ncc2cc3nc(c21)Cn1cc(nn1)CC(c1ccccc1)NC(=O)N3 (stereo not drawn) [Example 36, 1-(2-Methoxyethyl)-9-phenyl-1,6,9,10-tetrahydro-5,16-(azeno)-14,11-(metheno)pyrazolo[4,3-l][1,2,3,7,9]pentaazacyclopentadecin-7(8H,15H)-one] | 416
14 | CN1CCCCC(c2ccccc2)NC(=O)Nc2cc3cnn(C)c3c1n2 (stereo not drawn) [Example 20, 1,14-Dimethyl-9-phenyl-1,6,9,10,11,12,13,14-octahydro-5,15-(azeno)pyrazolo[4,3-f][1,3,9]triazacyclotetradecin-7(8H)-one] | 85.7
15 | CCn1ncc2cc3nc(c21)OCCC[C@](C)(O)[C@H](c1ccccc1)NC(=O)N3 [Example 27, (9S,10S)-1-Ethyl-10-hydroxy-10-methyl-9-phenyl-1,6,8,9,10,11,12,13-octahydro-7H-5,15-(azeno)pyrazolo[3,4-c][1,7,9]oxadiazacyclotetradecin-7-one] | 148
16 | O=C1Nc2cc3cnn(C(F)F)c3c(n2)CCCOC[C@H](c2ccccc2)N1 [Example 9, (9S)-1-(Difluoromethyl)-9-phenyl-1,6,9,10,13,14-hexahydro-12H-5,15-(azeno)pyrazolo[4,3-i][1,4,6]oxadiazacyclotetradecin-7(8H)-one] | 12.5
17 | C=C1COC[C@H](c2ccccc2)NC(=O)Nc2cc3cnn(CC)c3c(n2)C1 [Example 57, (9 S)-1-ethyl-13-methylidene-9-phenyl-1,6,9,10,13,14-hexahydro-12H-5,15-(azeno)pyrazolo[4,3-i][1,4,6]oxadiazacyclotetradecin-7(8H)-one] | 5.17
18 | Cn1ncc2cc3nc(c21)NCCCC[C@H](c1ccccc1)NC(=O)N3 [Example 19, (9R)-1-Methyl-9-phenyl-1,6,9,10,11,12,13,14-octahydro-5,15-(azeno)pyrazolo[4,3-f][1,3,9]triazacyclotetradecin-7(8 H)-one] | 9.32
19 | CCn1ncc2cc3nc(c21)CCCO[C@@H](CO)[C@@H](c1ccccc1)NC(=O)N3 [Example 13, (9R,10R)-1-Ethyl-10-(hydroxymethyl)-9-phenyl-1,6,9,10,13,14-hexahydro-12H-5,15-(azeno)pyrazolo[4,3-i][1,4,6]oxadiazacyclotetradecin-7(8H)-one] | 757
20 | CCn1ncc2cc3nc(c21)CCCOC[C@H](c1ccccc1)NC(=O)N3 [Example 1, (9S)-1-Ethyl-9-phenyl-1,6,9,10,13,14-hexahydro-12H-5,15-(azeno)pyrazolo[4,3-i][1,4,6]oxadiazacyclotetradecin-7(8H)-one] | 8.79
21 | Cn1ncc2cc3nc(c21)OCCC[C@@H](O)[C@H](c1ccccc1)NC(=O)N3 [Example 24, (9S,10R)-10-Hydroxy-1-methyl-9-phenyl-1,6,8,9,10,11,12,13-octahydro-7H-5,15-(azeno)pyrazolo[3,4-c][1,7,9]oxadiazacyclotetradecin-7-one] | 190
22 | CCn1ncc2cc3nc(c21)OCCC[C@H](O)[C@H](c1ccccc1)NC(=O)N3 [Example 25, (9S,10S)-1-Ethyl-10-hydroxy-9-phenyl-1,6,8,9,10,11,12,13-octahydro-7H-5,15-(azeno)pyrazolo[3,4-c][1,7,9]oxadiazacyclotetradecin-7-one] | 24.3
23 | CCn1ncc2cc3nc(c21)OCCC[C@@H](O)[C@H](c1ccccc1)NC(=O)N3 [Example 26, (9S,10R)-1-Ethyl-10-hydroxy-9-phenyl-1,6,8,9,10,11,12,13-octahydro-7H-5,15-(azeno)pyrazolo[3,4-c][1,7,9]oxadiazacyclotetradecin-7-one] | 118
24 | Cn1ncc2cc3nc(c21)OCCC[C@H](O)[C@H](c1ccccc1)NC(=O)N3 [Example 23, (9S,10S)-10-Hydroxy-1-methyl-9-phenyl-1,6,8,9,10,11,12,13-octahydro-7H-5,15-(azeno)pyrazolo[3,4-c][1,7,9]oxadiazacyclotetradecin-7-one] | 45.1
